Results: patent US20250277213A1, “COMPOSITIONS AND METHODS RELATED TO MULTIPLE MYELOMA-ASSOCIATED LONG NONCODING RNAS” (Washington University, priority 2024, published 2025)
“Also recorded” adds a separate entry of the source.

Legend:
Assay type in all cases: cell-based
LINC01432 [1] = assay: RT-qPCR of LINC01432 expression after LNA ASO transfection; conditions: RPMI 8226 cells; 100 nM ASO, 48-72 hours; vs control LNA ASO; FIG. 5A
Protocol: (§1) Locked nucleic acid GapmeR antisense oligonucleotides (LNA ASOs) targeting LINC01432 (Qiagen, cat #3653410) and CELF2 (Qiagen, cat #339511), and negative control LNA ASOs (Qiagen, cat #148759394), were designed using the Qiagen Antisense LNA GapmeR Custom Builder (https://www.qiagen.com), sequences are listed in Table 2. RPMI 8226 cells were seeded at a density of 500,000 cells/well in 6-well plates, transfected with respective ASOs at 100 nM concentration using Lipofectamine 2000, and incubated for 48-72 hours. Cells were harvested and target knockdown was validated via RT-qPCR.

RPMI 8226 cells [2] = test system: RPMI 8226 cells
Protocol: as §1
(§2) We used the ApoTox-Glo Triplex Assay (Promega, Madison, WI) to simultaneously measure viability, cytotoxicity, and apoptosis in the same sample. We seeded 20,000 cells/well of Control CRISPR/Cas9, LINC01432 knockdown CRISPR/Cas9, empty vector, LINC01432 overexpression, or wild-type RPMI 8226 cells in triplicate into a 96-well plate at 100 uls complete media per well. We began by first adding 20 ul of Viability/Cytoxicity reagent to all wells, and briefly mixing for ˜30 seconds. Plates were then placed in a 37° C. incubator for one hour. Next, we measured the intensity of fluorescence (relative fluorescence units) using 400Ex/505Em (viability) and 485Ex/520Em (Cytotoxicity) in Varioskan LUX microplate reader. To measure apoptosis, we next add 100 ul Caspase-Glo 3/7 reagent to the same wells and briefly mixed by orbital shaking ˜20 seconds, followed by incubation at room temp for 30 minutes. Luminescence (relative luminescence units) was then measured using Varioskan LUX microplate reader to detect caspase activation. A similar protocol was used to detect the proliferation of cells treated with Melphalan at increasing concentrations (Sigma Aldrich, St. Louis, MO, cat #M2011) using 10 uls Invitrogen alamarBlue HS Cell Viability Reagent in 90 μls of 25,000 cells with media (Waltham, MA, cat #A50100). Fluorescence was then measured using 560Ex/570Em in a microplate reader.

RPMI 8226 cells [3] = assay: Annexin V and propidium iodide flow cytometry, LNA ASO followed by Melphalan
Protocol: We measured apoptosis by isolating cells and assessing via flow cytometry using BD Horizon V450 AnnexinV (BD Biosciences, Franklin Lakes, NJ). We seeded 500,000 cells/well in a 6-well plate for 24 hours. Cells were then harvested, and the usual protocol was followed, per manufactures instructions. Briefly, cells were washed twice with PBS, then incubated V450 AnnexinV and Propidium Iodide (ThermoFisher) for fifteen minutes at room temperature in the dark. Apoptosis and DNA content was assessed on a flow cytometer machine (Novios, Becton Dickinson) by the Flow Cytometry Core of Siteman Cancer Center, Washington University in St. Louis. We collected a minimum of 50,000 cells per sample in triplicate. FlowJo Version10 (Becton Dickinson) was used to analyze data.

RPMI 8226 cells [4] = assay: Proliferation (alamarBlue, IC50 assay) of cells treated with LNA ASO and Melphalan
Protocol: as §2

LINC01432 [5] = assay: LINC01432 expression in U266B1 cells treated with standard drugs; conditions: FIG. 8B, 8C
LINC01432 [6] = assay: mFISH of LINC01432 in U266B1 cells treated with high-dose melphalan
Protocol: RNAScope was performed as previously described, with some modifications using RNAscope 2.5 HD Reagent Kit Red assay combined with Immunohistochemistry (Advanced Cell Diagnostics [ACD], Catalog #323180 and #322372) according to manufacturer's instructions. Briefly, bone marrow aspirates or isolated tumors were applied to slides were baked in a dry air oven for one hour at 60° C., deparaffinized (Xylene for five minutes twice, followed by 100% ethanol for two minutes twice), hydrogen peroxide was applied for 10 minutes at room temperature, and co-detection target retrieval was performed using Steamer (BELLA) for twenty minutes and PBS-T washing. Slides were then incubated overnight with CUGBP2 (CELF2) antibody (Protein Tech, Cat #12921-1-AP) in a HybEz Slide Rack with damp humidifying paper and incubated overnight at 4° C. The next day, slides were washed in PBS-T then post-primary fixation was performed by submerging slides in 10% NBF for 30 minutes at room temperature. […]
Analysis of mFISH and IHC images was performed by comparing expression of LINC01432 or CELF2 between different cell lines or tissues and simultaneously verifying their cellular localization or intensity of expression. We first visualized our target RNA molecules using an EVOS M5000 imaging system and quantified targets with QuPath Software v0.5.1 to obtain cell-count per region and number of spots per cell data. […]

[7] = test system: LINC01432 binding to CELF2; assay: iCLIP RT-qPCR of CELF2 binding to LINC01432 in U266B1 cells treated with melphalan; conditions: high-dose melphalan for 48 hours, FIG. 16B
Protocol: Cells were seeded at a density of twenty million cells/150 mm dish. The next day, cells were washed with cold PBS and media volumes were adjusted to 10 ml/dish. Dishes were then uncovered and irradiated with 150 mJ/cm^2 of […] (254 nm) in a crosslinker device (Stratalinker). Cells were then harvested and centrifuged at 2000 RPM at 4° C. for 5 minutes. Cell pellets were resuspended in 1 ml of NP-40 lysis buffer (20 mM Tris-HCl at pH 7.5, 100 mM KCl, 5 mM MgCl2, and 0.5% NP-40) with 1 μl protease inhibitor and 1 mM DTT, incubated on ice for ten minutes, and then centrifuged at 10,000 RPM for 15 minutes at 4° C. Supernatants were collected, 1 U/μl RNase T1 was added, then cell lysates were incubated at 22° C. for 30 minutes. Protein G Beads were resuspended in 100 μls NT2 buffer (50 mM Tris-HCl at pH 7.5, 150 mM NaCl,1 mM MgCl2, 0.05% NP-40) with 5 μg of respective antibodies, then rotated for one hour at room temperature. Cell lysates were added to the beads and incubated for three hours at 4° C., the beads were washed with NT2 buffer, and then incubated with 20 units RNAse-free DNase I for 15 minutes at 37° C. in a thermomixer, shaking slowly. […] (141 μls NP-40 lysis buffer, 0.1% SDS, 0.5 mg/ml Proteinase K) was then added and incubated for 15 minutes at 55° C. in a thermomixer, shaking at maximum speed. […]

MM cell lines = assay: Apoptosis after LNA ASO-mediated CELF2 knockdown; conditions: MM cell lines (U266B1 in FIG. 12B); vs control LNA ASO

In the case of “LINC01432-targeted LNA ASO: LNA GapmeR antisense oligonucleotide targeting LINC01432, TGGAGATTTTGCCATT (SEQ_ID_NO: 31) (antisense UGGAGAUUUUGCCAUU; LNA gapmer, pattern not given here)”, the LINC01432 expression (LINC01432 [1]) is reported as “confirmed knockdown of LINC01432 expression”, the cytotoxicity (RPMI 8226 cells [2]) is reported as “significant decreases” and the viability (RPMI 8226 cells [2]; RPMI 8226 cells, vs control LNA ASO, p=0.001, FIG. 5B) is reported as “significant decreases”. For the same molecule, the apoptosis (RPMI 8226 cells [2]; RPMI 8226 cells, vs control LNA ASO, p=0.017, FIG. 5B) was “significant increase”, the “apoptosis on co-treatment with melphalan” value (RPMI 8226 cells [3]; MM cell lines in vitro, co-treatment with high-dose melphalan) was “increased apoptosis” and the “proportion of cells in early apoptosis and necrosis” value (RPMI 8226 cells [3]; RPMI 8226 cells, LNA ASO followed by 24 hours of 30 μM Melphalan, vs control LNA ASO, FIG. 5C) was “increased”. For the same molecule, the sensitivity to melphalan (RPMI 8226 cells [4]; MM cell lines in vitro, with high-dose melphalan) was “induce sensitivity to melphalan; also recorded: enhanced sensitivity to melphalan” and the proliferation (RPMI 8226 cells [4]; RPMI 8226 cells, LNA ASO plus Melphalan, vs control LNA ASO, FIG. 5D) was “decreased proliferation”.

`N[C@@H](Cc1ccc(N(CCCl)CCCl)cc1)C(=O)O` [melphalan, Melphalan] was tested, and the LINC01432 expression (LINC01432 [5]) was “increases LINC01432 expression”, the “LINC01432 expression by mFISH” value (LINC01432 [6]; high-dose melphalan for 24 hours, p=0.001) was “High expression” and the “LINC01432 expression by mFISH” value (LINC01432 [6]; high-dose melphalan for 48 hours, p=0.0012) was “High expression”. The “decrease in binding enrichment compared to control cells, Tiling Primer 1” value [7] was > 2 Fold Change and the “decrease in binding enrichment compared to control cells, Tiling Primer 5” value [7] was > 2 Fold Change.

“CELF2 LNA ASO: LNA GapmeR antisense oligonucleotide targeting CELF2, GATGAACTCGTTACGC (SEQ_ID_NO: 33) (antisense GAUGAACUCGUUACGC; LNA gapmer from Qiagen, LNA pattern not given here)” was tested, and the apoptosis (MM cell lines) was “increased apoptosis”.
